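Briefly, cells in 96-well plates were exposed to five compound concentrations for 48 h, and endpoints were estimated by linear interpolation. At the GI50, growth is halved. At the TGI there is no net growth.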
Columns and labels:
Assay in all cases: inhibition of tumour cell growth, NCI panel, 48 h
[1] = test system: HCT-15 colon
[2] = test system: SK-MEL-5 melanoma
[3] = test system: K-562 leukemia
[4] = test system: MCF7 breast
[5] = test system: HOP-62 NSCLC
[6] = test system: NCI-H460 lung
[7] = test system: RXF 393 renal
[8] = test system: SN12C renal
[9] = test system: M14 melanoma
[10] = test system: SNB-19 CNS
[11] = test system: SW-620 colon
[12] = test system: SK-MEL-28 melanoma
[13] = test system: SK-MEL-2 melanoma
[14] = test system: IGROV1 ovarian
[15] = test system: MDA-MB-231 breast
[16] = test system: SNB-75 CNS
[17] = test system: T-47D breast
[18] = test system: SF-268 CNS
[19] = test system: RPMI-8226 leukemia
[20] = test system: HS 578T breast
[21] = test system: HCT-116 colon
[22] = test system: EKVX NSCLC
[23] = test system: CCRF-CEM leukemia
[24] = test system: 786-0 renal
[25] = test system: SF-539 CNS
[26] = test system: A498 renal
[27] = test system: NCI/ADR-RES ovarian
[28] = test system: HT29 colon
[29] = test system: COLO 205 colon
[30] = test system: HL-60(TB) leukemia
[31] = test system: SK-OV-3 ovarian
[32] = test system: OVCAR-8 ovarian
[33] = test system: NCI-H522 lung
[34] = test system: MDA-MB-435
[35] = test system: TK-10 renal
[36] = test system: CAKI-1 renal
[37] = test system: SF-295 CNS
[38] = test system: UACC-62 melanoma
[39] = test system: HCC-2998 colon
[40] = test system: A549 NSCLC
[41] = test system: HOP-92 NSCLC
[42] = test system: UACC-257 melanoma
[43] = test system: MALME-3M melanoma
[44] = test system: PC-3 prostate
[45] = test system: SR leukemia
[46] = test system: NCI-H226 lung
[47] = test system: MOLT-4 leukemia
[48] = test system: DU-145 prostate
[49] = test system: OVCAR-5 ovarian
[50] = test system: LOX IMVI melanoma
[51] = test system: BT-549 breast
[52] = test system: ACHN renal
[53] = test system: OVCAR-4 ovarian
[54] = test system: OVCAR-3 ovarian
[55] = test system: UO-31 renal
[56] = test system: KM12 colon
[57] = test system: U251 CNS

SMILES: CN1CCN(Cc2ccc(NC(=O)c3cncc(C#Cc4cnc(N)nc4)c3)cc2C(F)(F)F)CC1
- GI50 [1]: 0.556 µM
- TGI [1]: 12.9 µM
- GI50 [2]: 1.18 µM
- TGI [2]: 5.7 µM
- GI50 [3]: 0.005 µM
- TGI [3]: 50 µM
- GI50 [4]: 1.47 µM
- TGI [4]: 11.6 µM
- GI50 [5]: 0.952 µM
- TGI [5]: 6.43 µM
- GI50 [6]: 0.306 µM
- TGI [6]: 6.23 µM
- GI50 [7]: 0.346 µM
- TGI [7]: 4.18 µM
- GI50 [8]: 0.332 µM
- TGI [8]: 5.74 µM
- GI50 [9]: 0.178 µM
- TGI [9]: 1.28 µM
- GI50 [10]: 4.38 µM
- TGI [10]: 27.6 µM
- GI50 [11]: 0.49 µM
- TGI [11]: 6.41 µM
- GI50 [12]: 0.56 µM
- TGI [12]: 3.54 µM
- GI50 [13]: 0.11 µM
- TGI [13]: 0.339 µM
- GI50 [14]: 0.189 µM
- TGI [14]: 5.21 µM
- GI50 [15]: 0.258 µM
- TGI [15]: 3.46 µM
- GI50 [16]: 0.123 µM
- TGI [16]: 1 µM
- GI50 [17]: 0.916 µM
- TGI [17]: 50 µM
- GI50 [18]: 0.93 µM
- TGI [18]: 8.72 µM
- GI50 [19]: 0.66 µM
- TGI [19]: 6.43 µM
- GI50 [20]: 0.331 µM
- TGI [20]: 2.29 µM
- GI50 [21]: 0.231 µM
- TGI [21]: 5.16 µM
- GI50 [22]: 1.2 µM
- TGI [22]: 14.6 µM
- GI50 [23]: 1.16 µM
- TGI [23]: 16 µM
- GI50 [24]: 0.849 µM
- TGI [24]: 5.79 µM
- GI50 [25]: 0.263 µM
- TGI [25]: 3.78 µM
- GI50 [26]: 0.228 µM
- TGI [26]: 1.14 µM
- GI50 [27]: 3.56 µM
- TGI [27]: 19.9 µM
- GI50 [28]: 0.351 µM
- TGI [28]: 6.01 µM
- GI50 [29]: 0.398 µM
- TGI [29]: 5.61 µM
- GI50 [30]: 0.283 µM
- TGI [30]: 3.59 µM
- GI50 [31]: 0.174 µM
- TGI [31]: 1.12 µM
- GI50 [32]: 1.07 µM
- TGI [32]: 9.57 µM
- GI50 [33]: 0.376 µM
- TGI [33]: 6.93 µM
- GI50 [34]: 0.247 µM
- TGI [34]: 5.56 µM
- GI50 [35]: 0.81 µM
- TGI [35]: 7.17 µM
- GI50 [36]: 0.15 µM
- TGI [36]: 0.763 µM
- GI50 [37]: 1.43 µM
- TGI [37]: 9.22 µM
- GI50 [38]: 0.298 µM
- TGI [38]: 3.39 µM
- GI50 [39]: 1.35 µM
- TGI [39]: 9.53 µM
- GI50 [40]: 1.01 µM
- TGI [40]: 8.74 µM
- GI50 [41]: 0.157 µM
- TGI [41]: 1.23 µM
- GI50 [42]: 0.773 µM
- TGI [42]: 6.12 µM
- GI50 [43]: 0.15 µM
- TGI [43]: 0.653 µM
- GI50 [44]: 0.821 µM
- TGI [44]: 17.2 µM
- GI50 [45]: 0.425 µM
- TGI [45]: 8.48 µM
- GI50 [46]: 0.203 µM
- TGI [46]: 2.22 µM
- GI50 [47]: 0.449 µM
- TGI [47]: 11.6 µM
- GI50 [48]: 0.385 µM
- TGI [48]: 11.4 µM
- GI50 [49]: 0.994 µM
- TGI [49]: 9.76 µM
- GI50 [50]: 0.189 µM
- TGI [50]: 0.846 µM
- GI50 [51]: 1.24 µM
- TGI [51]: 5.47 µM
- GI50 [52]: 0.244 µM
- TGI [52]: 5.23 µM
- GI50 [53]: 0.553 µM
- TGI [53]: 9.75 µM
- GI50 [54]: 0.957 µM
- TGI [54]: 10.1 µM
- GI50 [55]: 0.396 µM
- TGI [55]: 2.88 µM
- GI50 [56]: 0.0521 µM
- TGI [56]: 7.27 µM
- GI50 [57]: 0.521 µM
- TGI [57]: 9.28 µM

SMILES: C#Cc1nc(/C=C/CCCCCCC(=O)NO)cs1
- GI50 [1]: 7.53 µM
- TGI [1]: > 100 µM
- GI50 [2]: 4.81 µM
- TGI [2]: 17.4 µM
- GI50 [3]: 2.95 µM
- TGI [3]: > 100 µM
- GI50 [4]: 5.03 µM
- TGI [4]: > 100 µM
- GI50 [5]: 5.47 µM
- TGI [5]: 58.7 µM
- GI50 [6]: 4.16 µM
- TGI [6]: > 100 µM
- GI50 [8]: 7.84 µM
- TGI [8]: > 100 µM
- GI50 [9]: 5.18 µM
- TGI [9]: 61.4 µM
- GI50 [10]: 16 µM
- TGI [10]: > 100 µM
- GI50 [11]: 2.14 µM
- TGI [11]: 4.9 µM
- GI50 [12]: 9.61 µM
- TGI [12]: 94.7 µM
- GI50 [13]: 20.6 µM
- TGI [13]: 85.5 µM
- GI50 [14]: 1.63 µM
- TGI [14]: 3.38 µM
- GI50 [15]: 2.25 µM
- TGI [15]: 5.13 µM
- GI50 [16]: 1.74 µM
- TGI [16]: 9.61 µM
- GI50 [17]: 3.08 µM
- TGI [17]: 33.8 µM
- GI50 [18]: 3.89 µM
- TGI [18]: 14.9 µM
- GI50 [19]: 1.41 µM
- TGI [19]: 5.21 µM
- GI50 [20]: 3.59 µM
- TGI [20]: 76.3 µM
- GI50 [21]: 2.7 µM
- TGI [21]: 10.5 µM
- GI50 [22]: 22.7 µM
- TGI [22]: > 100 µM
- GI50 [24]: 6.72 µM
- TGI [24]: 47.7 µM
- GI50 [25]: 1.59 µM
- TGI [25]: 3.05 µM
- GI50 [26]: 3.7 µM
- TGI [26]: 16.8 µM
- GI50 [27]: 2.15 µM
- TGI [27]: 13.6 µM
- GI50 [28]: 4.26 µM
- TGI [28]: 31.4 µM
- GI50 [29]: 4.73 µM
- TGI [29]: 18 µM
- GI50 [31]: 5.12 µM
- TGI [31]: 28.3 µM
- GI50 [32]: 3.45 µM
- TGI [32]: > 100 µM
- GI50 [33]: 3.05 µM
- TGI [33]: 17.9 µM
- GI50 [34]: 5.67 µM
- TGI [34]: > 100 µM
- GI50 [35]: 2.29 µM
- TGI [35]: 16.3 µM
- GI50 [37]: 5.52 µM
- TGI [37]: 19.3 µM
- GI50 [38]: 3.1 µM
- TGI [38]: 15 µM
- GI50 [39]: 11.6 µM
- TGI [39]: 36.9 µM
- GI50 [40]: 6.23 µM
- TGI [40]: > 100 µM
- GI50 [41]: 1.18 µM
- TGI [41]: 2.76 µM
- GI50 [42]: 3.39 µM
- TGI [42]: > 100 µM
- GI50 [43]: 1.53 µM
- TGI [43]: 3.12 µM
- GI50 [44]: 5.27 µM
- TGI [44]: > 100 µM
- GI50 [46]: 13.3 µM
- TGI [46]: 53.6 µM
- GI50 [48]: 3.01 µM
- TGI [48]: > 100 µM
- GI50 [49]: 3.07 µM
- TGI [49]: > 100 µM
- GI50 [50]: 0.185 µM
- TGI [50]: 0.352 µM
- GI50 [51]: 4.05 µM
- TGI [51]: 49.5 µM
- GI50 [53]: 2.31 µM
- TGI [53]: 6.34 µM
- GI50 [56]: 5.32 µM
- TGI [56]: 42.6 µM
- GI50 [57]: 3.47 µM
- TGI [57]: 18.6 µM
